These results are taken from ChEMBL document CHEMBL1201862, “PubChem BioAssay data set” (2004).

Calls of active or inactive are those of the source. Cut-off read from the data, not from the text of the source, for most assays here: actives have a measured EC50 and inactives only a lower limit.

Assay [1] relates to INS1. Nature of the assay: INS-1E survival protection against cytokine death – cell-based, luminescence, retest, dose response (AID 449756).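 Note: cell death triggered by IL-1 beta plus TNF-alpha plus IFN-gamma mixture; protective hits raise ATP signal compared with cytokine alone wells.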 Format: functional. The settings on record: Rattus norvegicus.
In assay [2] the target is T1, Heat shock factor protein 1 (Mus musculus, UniProt P38532).
T1 sequence (P38532 whole entry): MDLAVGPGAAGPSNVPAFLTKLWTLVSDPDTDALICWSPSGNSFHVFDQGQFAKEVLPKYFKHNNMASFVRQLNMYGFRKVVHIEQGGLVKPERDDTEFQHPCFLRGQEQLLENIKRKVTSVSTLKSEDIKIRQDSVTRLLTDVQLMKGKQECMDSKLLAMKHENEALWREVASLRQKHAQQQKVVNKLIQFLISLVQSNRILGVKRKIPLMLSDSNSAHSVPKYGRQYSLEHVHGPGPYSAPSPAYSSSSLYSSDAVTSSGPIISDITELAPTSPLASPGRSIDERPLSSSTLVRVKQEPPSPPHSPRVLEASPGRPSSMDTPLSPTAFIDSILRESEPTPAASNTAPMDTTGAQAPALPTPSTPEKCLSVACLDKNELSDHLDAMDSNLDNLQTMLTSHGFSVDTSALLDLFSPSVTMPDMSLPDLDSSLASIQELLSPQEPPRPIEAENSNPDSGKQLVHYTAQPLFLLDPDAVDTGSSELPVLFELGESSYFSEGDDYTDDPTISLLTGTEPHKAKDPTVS
Briefly: enhancement of HSF1-driven luciferase signal – cell-based, NIH3T3, luminescence, dose retest, confirmation (AID 435004).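 Note: stress induced by proteasome inhibitor MG132 added 30 min after compound; luciferase reporter driven by HSF1 response element in NIH3T3 cells; actives raise luminescence as potentiators of the MG132 stress response.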 The assay is classed as functional.

Assay [3] is described as follows: Luminescence Cell-Based Dose Response HTS to Identify Inhibitors of 5'UTR Stem-Loop Driven Prion Protein mRNA Translation in H4 Neuroglioblastoma Cells. [Related pubchem assays: 1827 (Project Summary), 1813 (Primary HTS)]. Format: functional.
Assay [4] can be described thus: alpha-synuclein stem-loop luciferase translation blockers – H4 neuroglioma cells, luminescence, confirmation (AID 1988). Format: functional, cell-based.
Assay [5] in a line: luciferase reporter signal suppression in cells – H4 neuroglioma cells, luminescence, dose response (AID 1990). Format: functional, cell-based. On the technique in general: A reporter such as luciferase makes a cellular process visible.
The target in assay [6] is T2, Replicative DNA helicase DnaB (Mycobacterium tuberculosis, UniProt P9WMR3).
T2 sequence (P9WMR3 whole entry): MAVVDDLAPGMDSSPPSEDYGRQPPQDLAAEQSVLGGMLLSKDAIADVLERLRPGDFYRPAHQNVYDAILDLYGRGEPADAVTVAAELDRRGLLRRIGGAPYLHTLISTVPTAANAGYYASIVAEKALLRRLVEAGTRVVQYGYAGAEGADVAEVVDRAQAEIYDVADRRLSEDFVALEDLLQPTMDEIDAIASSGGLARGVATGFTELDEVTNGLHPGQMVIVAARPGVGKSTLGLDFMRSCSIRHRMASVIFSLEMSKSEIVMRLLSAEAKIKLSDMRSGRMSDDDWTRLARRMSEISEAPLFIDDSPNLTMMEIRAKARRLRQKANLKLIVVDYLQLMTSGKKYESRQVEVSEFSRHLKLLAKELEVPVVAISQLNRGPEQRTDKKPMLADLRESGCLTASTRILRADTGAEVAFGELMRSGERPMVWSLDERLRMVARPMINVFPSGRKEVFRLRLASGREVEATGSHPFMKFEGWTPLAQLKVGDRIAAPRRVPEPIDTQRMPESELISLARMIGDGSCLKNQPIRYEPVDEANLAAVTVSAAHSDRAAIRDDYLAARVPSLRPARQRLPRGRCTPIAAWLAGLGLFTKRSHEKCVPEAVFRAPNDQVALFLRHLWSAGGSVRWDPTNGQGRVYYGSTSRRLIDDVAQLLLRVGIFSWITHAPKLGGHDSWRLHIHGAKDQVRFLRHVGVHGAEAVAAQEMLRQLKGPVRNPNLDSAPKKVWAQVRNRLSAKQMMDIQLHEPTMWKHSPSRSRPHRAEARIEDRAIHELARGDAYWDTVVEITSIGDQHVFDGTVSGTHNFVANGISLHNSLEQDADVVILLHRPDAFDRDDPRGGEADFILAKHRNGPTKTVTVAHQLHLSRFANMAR
Briefly: DnaB intein splicing inhibitors, dose response, biochemical, cell-free fluorescence (AID 449749). Format: functional.

Assay [7] addresses T3, Protein RecA (Mycobacterium tuberculosis, UniProt P9WHJ3).
T3 sequence (P9WHJ3 whole entry): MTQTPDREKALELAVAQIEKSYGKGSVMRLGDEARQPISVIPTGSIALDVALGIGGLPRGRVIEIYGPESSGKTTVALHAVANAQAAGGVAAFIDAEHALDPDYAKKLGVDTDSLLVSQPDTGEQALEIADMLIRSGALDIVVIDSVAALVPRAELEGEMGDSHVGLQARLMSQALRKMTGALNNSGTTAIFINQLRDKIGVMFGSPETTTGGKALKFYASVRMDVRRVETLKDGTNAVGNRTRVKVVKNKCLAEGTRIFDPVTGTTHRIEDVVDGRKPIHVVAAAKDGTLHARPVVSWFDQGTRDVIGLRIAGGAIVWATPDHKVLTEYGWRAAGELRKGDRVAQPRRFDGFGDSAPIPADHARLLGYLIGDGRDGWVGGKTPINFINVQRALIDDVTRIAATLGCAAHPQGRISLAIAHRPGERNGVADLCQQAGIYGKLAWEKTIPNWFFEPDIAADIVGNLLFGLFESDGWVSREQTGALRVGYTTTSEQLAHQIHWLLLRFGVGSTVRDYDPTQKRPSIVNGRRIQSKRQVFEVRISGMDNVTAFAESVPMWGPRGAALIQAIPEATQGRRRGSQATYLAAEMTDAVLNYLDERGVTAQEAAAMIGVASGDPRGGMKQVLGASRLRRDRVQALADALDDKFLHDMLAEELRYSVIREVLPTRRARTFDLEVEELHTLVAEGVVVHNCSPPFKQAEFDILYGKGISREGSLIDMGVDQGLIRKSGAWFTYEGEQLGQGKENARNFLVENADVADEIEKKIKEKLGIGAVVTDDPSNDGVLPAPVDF
Nature of the assay: Fluorescence Cell-Free Homogeneous Dose Retest to Identify Inhibitors of RecA-Intein Splicing Activity. [Related pubchem assays (depositor defined):AID2097, AID2223, AID489010, AID492950]. Format: functional.

The target in assay [8] is Paired box protein Pax-8 (Homo sapiens, UniProt Q06710). Nature of the assay: PAX8 transcriptional activity inhibition in RMG-I – RMG-I cells, luciferase, cherry-pick, dose response (AID 687027).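 Note: luciferase reporter driven by Pax8 target thyroperoxidase promoter measured by SteadyGlo luminescence.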 Format: functional, cell-based.
A short description of assay [9]: Trypanosoma cruzi growth suppression in host cells – NIH3T3 host cells, beta-gal luminescence, confirmation (AID 2044).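 Note: intracellular parasites grown in NIH/3T3 mouse fibroblasts as host cells; luminescent beta-galactosidase reporter signal from transgenic T. cruzi replicating inside host cells; inhibitors lower the luminescence signal.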 Format: functional, cell-based.
The nature of assay [10]: NIH3T3 cell viability loss – ATP luminescence, mouse fibroblasts, counter-screen, dose response (AID 2010).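 Note: cells exposed to compound for about 90 hours before reading.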 Format: functional, cell-based. A general note: The purpose of a counterscreen is to sort out artefacts and off-target activity.
Assay [11] can be described thus: viability of uninfected HEp-2 cells – cell-based, HTS, cytotoxicity control for RSV inhibitor project, dose response (AID 2410). Format: functional. The settings on record: human respiratory syncytial virus.
A short description of assay [12]: Luminescence Cell-Based Dose Retest to Confirm Inhibitors of Cancer Stem Cells. [Related pubchem assays (depositor defined):AID2717, AID2721]. The assay is classed as functional. The settings on record: Homo sapiens.

Paired box protein Pax-8, sequence (Q06710 whole entry): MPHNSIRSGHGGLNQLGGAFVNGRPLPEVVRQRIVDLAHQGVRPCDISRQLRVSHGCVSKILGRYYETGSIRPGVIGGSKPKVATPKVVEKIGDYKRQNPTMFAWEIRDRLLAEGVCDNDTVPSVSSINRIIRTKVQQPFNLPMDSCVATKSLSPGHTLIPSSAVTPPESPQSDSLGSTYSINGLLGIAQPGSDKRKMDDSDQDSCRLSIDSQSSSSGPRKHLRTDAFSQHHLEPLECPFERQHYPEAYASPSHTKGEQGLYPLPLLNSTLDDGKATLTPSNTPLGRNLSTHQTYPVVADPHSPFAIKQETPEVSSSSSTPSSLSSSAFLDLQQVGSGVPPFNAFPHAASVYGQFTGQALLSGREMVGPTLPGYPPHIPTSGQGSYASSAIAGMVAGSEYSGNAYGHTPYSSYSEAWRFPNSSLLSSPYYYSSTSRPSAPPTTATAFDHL

Turning to `CCC(=NNC(=O)c1ccc2c(c1)nc(C)n2CC)c1cc(F)ccc1O`, the AC50 in assay [1] was 2.32 µM (active).

As to `Cc1c(/C=N/NC(=O)c2ccc(Br)o2)cnn1C`, the EC50 in [2] is > 260 µM (inactive).

As for `CC(=O)c1ccc(-c2ccccc2[C@H]2[C@H]3C=CC[C@@H](C)[C@@H]3C(=O)N2Cc2ccccc2)cc1`, the figures for the 50% effective concentration (EC50) in assay [3], in [4] and in assay [5] were > 120 µM (not active), 22.4 µM (active) and 30 µM (active), respectively.

`COc1ccc(C(=O)Nc2ccc(O)c3ccccc23)cc1OC`: in [6], the half-maximal activity concentration (AC50) was 82 µM (active). Besides, the EC50 in assay [7] is 8.4 µM (active).

Turning to `O=C(Cc1cc(O)n[nH]1)N/N=C/c1c(F)cccc1Cl`, in assay [6], the half-maximal activity concentration (AC50) is 1.87 µM (active). Moreover, the half-maximal effective concentration (EC50) in assay [7] is 1.53 µM (active).

As to `COc1ccc(S(=O)(=O)Nc2ccc3c(c2)CC(=O)N([C@H](C)CO)C[C@H](C)[C@@H](CN(C)Cc2ccc(-c4ccccc4)cc2)O3)cc1`, in assay [8], the AC50 is 9.41 µM (active).

`Cc1cc(Oc2ccc(=O)n(C)n2)nc(SCc2ccccc2)n1`: the EC50 was 16.6 µM (active) in assay [3], 22.1 µM (active) in assay [4] and > 120 µM (not active) in assay [5].

For `COC(=O)C1C/C(=N\NS(=O)(=O)c2ccc(C)cc2)c2sccc2C1` (stereo not drawn), the half-maximal effective concentration (EC50) in [3], in [4] and in assay [5] was > 120 µM (not active) in each case.

As to `COCCn1c(=O)[nH]c2cc(C(=O)N3CCN(c4cccc(Cl)c4)CC3)ccc2c1=O`, the EC50 in assay [2] is > 260 µM (inactive).

For the molecule `COc1ccccc1NC(=O)C1=C(C)N=C2CC(c3ccc(OC)c(OC)c3)CC(O)=C2C1c1coc2ccccc2c1=O` (stereo not drawn), the 50% effective concentration (EC50) in assay [2] is 34.5 µM (active).

Regarding `COP(=O)(OC)c1nc(-c2cccc3ccccc23)oc1NCc1ccccc1`, the EC50 in assay [2] was > 260 µM (inactive).

Take `C/C(=N\N1C(=O)c2ccccc2NC1c1ccco1)c1ccccc1O` (stereo not drawn): the concentration giving a half-maximal response (EC50) in assay [9] was 1.66 µM (active); in [10], 4.99 µM (active). Moreover, the concentration at half-maximal activity (AC50) in assay [1] was 2.21 µM (active).

For the molecule `Cc1cc(C)nc(N/N=C2/CCCC/C2=C\c2ccccc2)n1`, the AC50 in [1] was 0.397 µM (active).

As to `CCn1c(-c2ccccc2)c(C(=O)CCl)c2ccccc21`, the EC50 is 1.42 µM (active) in assay [9], 4.12 µM (active) in assay [10], 7.71 µM (active) in assay [2] and 1.05 µM (active) in assay [7]. The AC50 in assay [1] is 7.82 µM (active); in [6], 3.27 µM (active).

`O=C(Nc1ccc(F)cc1F)N1CCCN(CCOc2ccccc2)CC1`: in [1], the AC50 is 13.3 µM (active).

For the molecule `Cc1ccc(C(=O)Oc2ccc([N+](=O)[O-])cc2)cc1S(=O)(=O)N1CCCCCC1`, the AC50 in [6] is 3.4 µM (active). Also, the half-maximal effective concentration (EC50) in assay [7] is 4.99 µM (active).

Regarding `Cc1cc2oc3c(c(=O)c2cc1C)C(c1ccc(C(C)C)cc1)N(CCCN1CCOCC1)C3=O` (stereo not drawn), the EC50 in assay [2] was > 260 µM (inactive).

`N#CC1=C(N)Oc2[nH]nc(-c3ccncc3)c2C1c1ccsc1` (stereo not drawn): the AC50 in assay [6] was 13.4 µM (active). The EC50 in [7] is 3.27 µM (active).

For `N#CC1=C(N)Oc2[nH]nc(-c3cccs3)c2C1c1ccccc1C(=O)O` (stereo not drawn), the AC50 in [6] is 2.69 µM (active). Besides, the concentration for a half-maximal effect (EC50) in [7] is 1.56 µM (active).

For `FC(F)(F)c1cccc(OCc2nnc3n2CCC3)c1`, the EC50 in [3], in assay [4] and in assay [5] was > 120 µM (not active) throughout.

For `COCCCNC(=O)CCn1c(=O)c2ccccc2n(CC(=O)Nc2cc(Cl)ccc2C)c1=O`, in assay [2], the EC50 is > 260 µM (inactive).

On to `Cc1sc2nc(CSc3cccc(C(F)(F)F)c3)nc(O)c2c1C`, for which, in assay [2], the EC50 is > 260 µM (inactive).

With `CC(=O)Nc1ccccc1NC(=O)C/C(C)=N/NC(=O)C(=O)N1CCCCC1`, in assay [6], the AC50 is 5.84 µM (active). In [7], the 50% effective concentration (EC50) is 0.891 µM (active).

With `O=C(c1ccc(F)c(S(=O)(=O)N2CCOCC2)c1)N1CCN(c2ccc(F)cc2)CC1`, in assay [1], the AC50 is > 260 µM (inactive).

For the molecule `Cc1cc(Cl)ccc1OCC(=O)Nc1ccccc1N1CCOCC1`, the EC50 in [3] is > 120 µM (not active); in assay [4], > 120 µM (not active); in [5], 18.2 µM (active).

On to `COc1ccc(C2=Nn3c(nnc3-c3ccccn3)SC2)cc1OC`, for which the concentration giving a half-maximal response (EC50) in assay [3] is > 120 µM (not active); in assay [4], 17.2 µM (active); in assay [5], 20.8 µM (active).

`CCCCCn1c(Sc2ccccc2)nc2c1c(=O)[nH]c(=O)n2C`: the EC50 is 20.1 µM (active) in assay [3], 16.9 µM (active) in [4] and 5.33 µM (active) in assay [5].

For the molecule `CC(=O)Nc1nnc(SCC(=O)c2ccc(F)cc2)s1`, the EC50 in assay [2] was 67.4 µM (active).

Take `CCOc1cc(/C=N/NC(=O)Cn2nc([N+](=O)[O-])cc2C)cc(Br)c1OCc1ccccc1C`: the concentration for a half-maximal effect (EC50) in assay [9] was 2.32 µM (active); in [10] it was > 60 µM (not active); in assay [2], > 260 µM (inactive). Besides, the CC50 in [11] was 8.17 µM (active).

Take `CC1(c2ccccc2)CC(C)(C)n2c(O)c(C3=NC(=S)NC3=O)c3cccc1c32` (stereo not drawn): the half-maximal effective concentration (EC50) in [3] is 17.6 µM (active); in assay [4], 22.8 µM (active); in assay [5], 20.5 µM (active).

Turning to `Cc1cc2oc(=O)c(CC(=O)NCCCN(C)C)c(C)c2c2occ(C(C)(C)C)c12`, the EC50 was 2.29 µM (active) in assay [9]; 4.86 µM (active) in assay [10]; 12.6 µM (active) in [3]; 8.72 µM (active) in assay [4]; > 120 µM (not active) in assay [5]. In [12], the AC50 is 1.22 µM (active).

For orientation: AC50 means the concentration at which the activity in the assay is half-maximal. By EC50 is commonly meant the concentration needed to bring the measured effect to its halfway point. The term CC50 denotes the concentration at which the toxic effect on the cells reaches its halfway point.
